Measured values from PMC9863607, “Combined Use of Antimicrobial Peptides with Antiseptics against Multidrug-Resistant Bacteria: Pros and Cons” (Pharmaceutics, 2023).

Columns and labels:
E. coli ML-35p = experiment: Broth microdilution assay (MIC, planktonic bacteria); assay type: cell-based, Escherichia coli; settings: antiseptics and surfactants; MHB, overnight 37 °C; median of 3–4 independent experiments; prontosan as polyhexanide
Description: (§1) In this regard the test plates were preincubated for 1 h at 37 °C with 0.1% bovine serum albumin (BSA) in distilled water before use. Bacteria were grown overnight at 37 °C with shaking in 2.1% Müller–Hinton broth (MHB), and then a small aliquot was transferred into the fresh portion of the same medium for another 2–3 h on the day of the experiment to provide us with the log phase bacterial suspension. Concentration of bacterial cells in suspension was evaluated based on absorbance at 620 nm and diluted down to 1 × 10^6 CFU/mL with MHB. Equal volumes of the prepared bacterial suspension in MHB and two-fold serial dilutions of the antimicrobials in 10 mM sodium phosphate (Na-P) buffer (pH 7.4) with 0.1% BSA were mixed and incubated overnight at 37 °C. The lowest concentration where no bacterial growth was observed the next day under visual examination was considered the minimal inhibitory concentration. The test was repeated at least three times, and the final MIC value was established as a median result. Each experiment was conducted in triplicates. Terasaki microplates (10 µL end volume, V-shaped bottom; Sarstedt, Nümbrecht, Germany) were used.

E. coli ESBL 521/17 = experiment: microbe, parasite or virus in culture; assay type: cell-based, Escherichia coli; settings: antiseptics and surfactants; MHB, overnight 37 °C; median of 3–4 independent experiments; prontosan as polyhexanide
Description: as §1

S. aureus 1399/17 = experiment: microbe, parasite or virus in culture; assay type: cell-based, Staphylococcus aureus; settings: antiseptics and surfactants; MHB, overnight 37 °C; median of 3–4 independent experiments; prontosan as polyhexanide
Description: as §1

[1] = test system: K. pneumoniae ESBL 344/17; experiment: microbe, parasite or virus in culture; assay type: cell-based, Klebsiella pneumoniae; settings: antiseptics and surfactants; MHB, overnight 37 °C; median of 3–4 independent experiments; prontosan as polyhexanide
Description: as §1

P. aeruginosa MDR 522/17 = experiment: microbe, parasite or virus in culture; assay type: cell-based, Pseudomonas aeruginosa; settings: antiseptics and surfactants; MHB, overnight 37 °C; median of 3–4 independent experiments; prontosan as polyhexanide
Description: as §1

A. baumannii 7226/16 = experiment: microbe, parasite or virus in culture; assay type: cell-based, Acinetobacter baumannii; settings: antiseptics and surfactants; MHB, overnight 37 °C; median of 3–4 independent experiments; prontosan as polyhexanide
Description: as §1

[2] = test system: drug-resistant clinical isolates and E. coli ML-35p; experiment: Checkerboard titration, all tested bacteria together; assay type: cell-based; settings: planktonic bacteria
Description: The mode of interaction of the test substances while applied in combinations was analyzed based on the calculation of the fractional (or combination) indices—the mathematical “embodiment” of the Loewe additivity paradigm that we used for the classification of combination effects in this study. As synergy is generally defined as a greater than additive effect, and antagonism as a lower than additive effect, the main problem is to establish a reference level for this additive effect. The Loewe approach uses the idea of the self-additivity of an individual substance; thus, the individual activity may be regarded as an additivity control. To identify additivity, synergy, or antagonism in Loewe terms, one should choose a fixed level of the studied effect and then compare the doses of individual substances required to reach this level, with the fractional doses of the substances in combination providing the same level of the effect.
In the case of activity testing of combinations toward planktonic bacteria, a checkerboard titration scheme was used to create an array of mixtures of the two substances (A and B) in various concentrations by diluting the first one two-fold row-by-row and the second one column-by-column. The left column and the bottom row contained the dilutions of only one substance (A or B) to control their individual activity levels in every experiment. […]

bacteria = settings: cited from earlier work
Source text: Among surfactants, as was expected based on the literature data, sodium lauroyl sarcosinate was the most universally active toward bacteria. […] This is especially interesting in light of the fact that prontosan has an amidopopyl betaine in its composition alongside the poly ...

Row | SMILES | MIC (E. coli ML-35p) [µg/mL] | MIC (E. coli ESBL 521/17) | MIC (S. aureus 1399/17) | MIC [1] | MIC (P. aeruginosa MDR 522/17) | MIC (A. baumannii 7226/16) | Type of interaction with AMPs, antibacterial effect of combinations [2] | MICs by disk-diffusion method (bacteria) [mg/mL]
1 | [Na+].[O-]Cl [Sodium hypochlorite] | 5000 | 5000 µg/mL | 10,000 µg/mL | 5000 µg/mL | 5000 µg/mL | 2500 µg/mL | antagonistic interaction | –
2 | CCCCCCCCCCCC(=O)N(C)CC(=O)[O-].[Na+] [Sodium lauroyl sarcosinate] | 6250 | 12,500 µg/mL | >50,000 µg/mL | 12,500 µg/mL | 50,000 µg/mL | 25,000 µg/mL | antagonistic interaction | 37.5 to 300
